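Following 48 hours of exposure in 96-well plates, responses at five concentrations were used to interpolate endpoints linearly. The concentration for 50% growth inhibition is given as GI50.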 The source made the active and inactive calls. Cut-off read from the data, not from the text of the source: active = GI50 up to about 1.1 µM and inactive = higher.
Key:
Experiment in all cases: NCI-60 cell line screen, 48 h
[1] = tested on: 786-0
[2] = tested on: A498
[3] = tested on: DU-145
[4] = tested on: HCC 2998
[5] = tested on: HOP-92
[6] = tested on: KM12
[7] = tested on: MOLT-4
[8] = tested on: NCI-H226
[9] = tested on: OVCAR-8
[10] = tested on: PC-3
[11] = tested on: SF-539
[12] = tested on: SK-MEL-2
[13] = tested on: SK-MEL-5
[14] = tested on: SR
[15] = tested on: SW-620
[16] = tested on: T47D
[17] = tested on: TK-10
[18] = tested on: U-251
[19] = tested on: UACC-257
[20] = tested on: UACC-62

Measured: GI50

O=[N+]([O-])c1ccc2[nH]c(=S)[nH]c(=S)c2c1
inactive: [1] > 100 µM | [2] > 100 µM | [3] > 100 µM | [4] > 100 µM | [5] > 100 µM | [6] > 100 µM | [7] > 100 µM | [8] > 100 µM | [9] > 100 µM | [10] > 100 µM | [11] > 100 µM | [12] > 100 µM | [13] > 100 µM | [14] > 100 µM | [15] > 10 µM | [16] > 100 µM | [17] > 100 µM | [18] > 100 µM | [19] > 100 µM | [20] > 100 µM

O=C1NC(Nc2ccccc2)=N/C1=C\c1c(Cl)cccc1Cl
inactive: [1] 15.1 µM | [2] 32.3 µM | [3] 24.7 µM | [4] 21.4 µM | [5] 11.9 µM | [6] 29.5 µM | [7] 20.7 µM | [8] 16.7 µM | [9] 19.1 µM | [10] 17.8 µM | [11] 22.1 µM | [12] 18 µM | [13] 16.3 µM | [14] 5.09 µM | [15] 36.1 µM | [16] 30.8 µM | [17] 18.9 µM | [18] 17.9 µM | [19] 23.8 µM | [20] 21.6 µM

C=CCSSCC=C
inactive: [1] 22.5 µM | [2] > 100 µM | [3] > 100 µM | [4] > 100 µM | [5] 28.5 µM | [6] 68.9 µM | [7] 1.8 µM | [8] 32.1 µM | [9] 27.6 µM | [10] 39.8 µM | [11] 29.5 µM | [12] > 71.1 µM | [13] 35.4 µM | [14] 4.09 µM | [15] 19.1 µM | [16] > 100 µM | [17] > 100 µM | [18] 61.4 µM | [19] 32.8 µM | [20] 44.3 µM

CCOC(=O)C(NC(=O)c1ccccc1)(N1CCN(c2cc3c(cc2F)c(=O)c(C(=O)O)cn3CC)CC1)C(F)(F)F (stereo not given)
inactive: [1] 39.7 µM | [2] 24.5 µM | [3] 59.3 µM | [4] 52.2 µM | [5] 28.8 µM | [6] 25.9 µM | [7] 21.5 µM | [8] 29.2 µM | [9] 19.2 µM | [10] 31.3 µM | [11] 26.5 µM | [12] 31.5 µM | [13] 22.9 µM | [14] 27.2 µM | [15] 47.6 µM | [16] 23.9 µM | [17] 29.4 µM | [18] 41.2 µM | [19] 12.9 µM | [20] 29.6 µM

COc1ccc(/[N+]([O-])=C/c2ccccc2OC(=S)S)cc1
inactive: [1] 24.9 µM | [2] 26.1 µM | [3] 39.9 µM | [4] 44.5 µM | [5] 12.4 µM | [6] 31 µM | [7] 37.7 µM | [8] 30.8 µM | [9] 18.7 µM | [10] 39.3 µM | [11] 22.6 µM | [12] 28.2 µM | [13] 30.5 µM | [14] 28.4 µM | [15] 39.8 µM | [16] 41.8 µM | [17] 80.7 µM | [18] 46.6 µM | [19] 29 µM | [20] 32.6 µM
